# Results: patent US6399664B2, “Method of treating cancer, specifically leukemia, with ozone” (priority 1996, dated 2002)
# Legend:
# [1] = system: chronic myeloid leukemia (CML); assay: Conventional chemotherapy with Hydroxyurea of CML canine #198675
# [2] = system: K562 leukemic cell line; assay: K562 colony formation and differentiation in methylcellulose medium; format: cell-based, human
# Protocol: (§1) Ozone and ROI's were generated using medical grade oxygen from a high voltage corona discharge electrical ozone generator (Carpendale and Freeberg, 1991; Viebahn, 1994; FIG. 13). Liquid RPMI complete media suspension of K562 cell cultures or normal human whole blood (10 ml each treatment) was processed through a micro-bubbling device at several ozone concentrations (5, 10, 15, and 25 μg/ml). In addition, a 100% oxygen treated and non-processed control samples were also examined. After processing, complete blood counts were measured on all whole blood samples. Peripheral blood mononuclear cells (PBMC) were isolated using a standard density gradient of 1.077 g/ml and washed with Iscove's medium. Viability and cell counts were determined manually using a hemocytrometer and a 4% solution of Trypan blue. Cell concentrations were adjusted to 2.0×10^6 cells/ml. Cells were mixed in a 1:10 (v/v) ratio with methylcellulose medium with recombinant growth factors (#HCC-4434, StemCell Technologies Inc.) and plated to contain 2×10^5 cells per plate in duplicate for normal PBMCs and 2×10^4 for K562 cells. Plates were incubated at 37° C. in a CO2/O2 incubator. Colonies were scored on day 5, 8, 10 and day 14 according to the scoring criteria by StemCell Technologies. The data results for cell viability, total colonies (proliferation) and individual colony cell types (differentiation) are presented in FIGS. 1-8.
# [3] = system: normal human peripheral blood leukocytes; assay: Effects of ozone on normal human leukocytes run in parallel; format: cell-based; settings: at the concentrations used
# Protocol: as §1, with “The data results for cell viability, total colonies (proliferation) and individual colony cell types (differentiation) are presented in FIGS. 1-8.” left out
# [4] = system: chronic myeloid leukemia (CML); assay: Ozone/ROI therapy (iv injection, adjunct minor autohemotherapy) of CML canine #198675; format: in vivo
# Protocol: The attending veterinarian discussed euthanasia and the ozone or ROI therapy described in this invention with the owner under strict confidence. The owner and all attending veterinarians signed consent and confidentiality forms and the ozone or ROI therapy began on Sep. 23, 1997 and continued for 16 weeks. Prior to each weekly ozone or ROI treatment the patient's complete blood counts were measured using a Coulter Counter Hematology Analyzer (Coulter Electronics Canada Co.). The leukocyte differential counts were determined manually by the pathologist and recorded in FIG. 14. Ozone and ROI's were generated from a high voltage corona discharge electrical ozone generator using medical grade oxygen as shown in FIG. 13. Ozone/oxygen gas (30 to 60 ml) was injected intra-venously (iv) through a sterile catheter needle (Abbocath-T, 22 g×11⁄4 in.; Abbott Ireland) inserted in the leg vein of the mammal (canine #198675) with a sterile extension set (79 cm, […], Abbott Ireland) attached to the syringe containing the ozone ROI gas mixture. The ozone/oxygen gas mixture was slowly injected over a 10 to 20 minute period to allow maximum gas absorption. The secondary or adjunct to the preferred route of administration was minor autohemotherapy (minor AHT) where heparinized whole blood (7 ml each treatment) was gently mixed in a disposable syringe or devise with increasing doses of ozone to a maximum of 25 ml at 34 to 42 μg/ml (dose is species specific). The blood gas mixture was allowed to equilibrate at room temperature for 1 to 5 minutes with intermittent mixing. The excess gas was evacuated prior to intramuscular (im) or subcutaneous (sc) injection of the ozonated blood at several locations. Patients were accessed prior to, during and post treatment by blood tests, clinical response, and biopsy when appropriate.
# [5] = system: cytokine levels such as IL-1, IL-2 and IFN-γ; settings: in humans; cited from earlier work
# [6] = system: normal human peripheral blood mononuclear cells (PBMC); assay: Normal human PBMC colony formation in methylcellulose medium; format: cell-based; settings: ozone 5, 10, 15, 25 μg/ml
# Protocol: as §1, with “The data results for cell viability, total colonies (proliferation) and individual colony cell types (differentiation) are presented in FIGS. 1-8.” left out
# [7] = system: K562, Human CML cell line; assay: K562 viability by Trypan blue exclusion after ozone micro-bubbling; format: cell-based; settings: ozone 5, 10, 15, 25 μg/ml
# Protocol: as §1, with “The data results for cell viability, total colonies (proliferation) and individual colony cell types (differentiation) are presented in FIGS. 1-8.” left out
# [8] = system: cultured human cancerous cell lines derived from lung, breast and uterine solid tumours; settings: little damage to normal cell growth; cited from earlier work
# [9] = 500 mg twice daily for approximately one year
# [10] = 16 μg/ml ozone injected, up to 197 ug total, in vivo concentration less than 0.25 μg/ml
# [11] = 28 to 42 μg/ml ozone injected, up to 2100 ug total, in vivo concentration 0.5 to 1.5 μg/ml
compound,measurement,setting,value
NC(=O)NO [Hydroxyurea],RBC counts,[1]; [9],increased with time
same,WBC levels relative to normal canine range of 6.1 to 17.4×10^9 cells per liter,[1]; [9],never returned to the normal canine range
same,side effects (clinical presentation),[1]; [9],"depression, lethargy, severe to mild diarrhea, anorexia, vomiting, weight loss, occasionally vaginal bleeding, abdominal pain and splenomegaly"
same,total WBC counts,[1]; [9],decrease
same,time of entering blast crisis after cessation of conventional chemotherapy,[1]; after one year of chemotherapy,1.5 months
O=[O+][O-] [ozone],"colony differentiation, dose response",[2]; increasing concentrations of ozone,increased colony differentiation into normal cells
same,"production of normal hematopoietic colonies (CFU-E, BFU-E, GM-CFU, CFU-GEMM) from K562","[2]; ozone 5, 10, 15, 25 μg/ml",stimulates the production of normal hematopoietic colonies
same,proliferation of leukemia derived colonies,"[2]; ozone 5, 10, 15, 25 μg/ml, total colonies",inhibits the proliferation
same,effects on normal human leukocytes,[3],no significant deleterious effects
same,effect on canine hematopoietic system,[4]; [10],significant activation
same,production of leukemic cells,[4]; [10],significant increase
same,progression of CML (total WBC and RBC counts),[4]; 16 week treatment,reversed the progression of CML
same,effect on canine hematopoietic system,[4]; [11],significant inhibition
same,production of leukemic cells,[4]; [11],significant reduction
same,patient's quality of life,"[4]; CML canine #198675, weekly ozone/ROI treatment, 16 weeks",increase
same,diarrhea,"[4]; CML canine #198675, diarrhea not related to CML","slight improvement in the diarrhea, although only temporary"
same,vomiting,[4]; after the first two weeks of treatment,decrease
same,ability of the immature stem cell to differentiate into the different blood cell types,"[4]; ozone dose dependent, 16 to 42 μg/ml generated ozone concentration",improved
same,total WBC counts,[4]; with the increase of the internal ozone concentration in the mammal,decrease
same,"cytokine levels such as IL-1, IL-2 and IFN-γ",[5],increases cytokine levels
same,effects in the colonies from normal human PBMC,[6],no deleterious effects
same,viability of malignant cells,[7],reduction in the viability
same,growth of cultured human cancerous cell lines,[8],selectively inhibit the growth
